Reference: ChEMBL document CHEMBL1128980, “(R)-3-(6-chloro-1-isopropylbenzimidazole-4-carboxamido)quinuclidine: A high affinity ligand for the (R)-zacopride binding site” (Bioorg Med Chem Lett, 1996)

How the values were obtained:
[1] = molecular target: T1, 5-hydroxytryptamine receptor 3A (Homo sapiens, UniProt P46098); assay: Binding affinity for 5-hydroxytryptamine 3 receptor by displacement of [3H](R)-zacopride from ondansetron-treated NG-108-15 cell membranes
T1 sequence (P46098 whole entry): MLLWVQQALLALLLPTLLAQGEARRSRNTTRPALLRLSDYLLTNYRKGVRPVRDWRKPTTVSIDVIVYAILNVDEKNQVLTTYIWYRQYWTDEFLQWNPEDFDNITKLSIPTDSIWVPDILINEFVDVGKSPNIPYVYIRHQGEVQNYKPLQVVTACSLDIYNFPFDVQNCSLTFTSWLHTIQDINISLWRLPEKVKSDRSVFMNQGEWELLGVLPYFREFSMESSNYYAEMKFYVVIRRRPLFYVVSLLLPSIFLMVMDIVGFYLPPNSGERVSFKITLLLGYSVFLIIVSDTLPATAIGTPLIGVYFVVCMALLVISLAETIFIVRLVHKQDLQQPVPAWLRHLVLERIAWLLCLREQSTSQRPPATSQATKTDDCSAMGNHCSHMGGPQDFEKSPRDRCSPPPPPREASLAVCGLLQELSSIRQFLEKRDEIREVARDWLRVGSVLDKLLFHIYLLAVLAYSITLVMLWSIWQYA

[2] = molecular target: T1, 5-hydroxytryptamine receptor 3A; assay: Binding affinity for 5-hydroxytryptamine 3 receptor by displacement of [3H]-BRL 43694 from NG-108-15 cell membranes
[3] = molecular target: 5-hydroxytryptamine receptor 4 (Cavia porcellus, UniProt O70528); assay: Binding affinity for 5-hydroxytryptamine 4 receptor by displacement of [3H]GR-113808 from guinea pig brain striatum.
Sequence of 5-hydroxytryptamine receptor 4 (O70528 whole entry): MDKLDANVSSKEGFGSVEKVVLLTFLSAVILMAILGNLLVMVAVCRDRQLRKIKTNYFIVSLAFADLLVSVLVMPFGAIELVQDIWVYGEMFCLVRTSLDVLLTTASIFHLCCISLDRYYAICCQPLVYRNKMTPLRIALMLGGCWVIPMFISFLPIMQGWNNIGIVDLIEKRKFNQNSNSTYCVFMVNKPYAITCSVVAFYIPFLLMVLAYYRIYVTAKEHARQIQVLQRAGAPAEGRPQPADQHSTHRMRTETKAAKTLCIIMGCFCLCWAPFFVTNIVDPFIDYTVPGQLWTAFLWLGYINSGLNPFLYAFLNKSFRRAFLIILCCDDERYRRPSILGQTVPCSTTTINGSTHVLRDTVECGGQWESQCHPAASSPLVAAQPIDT

[4] = molecular target: T2, Serotonin 3 (5-HT3) receptor (Rattus norvegicus, UniProt P35563+Q9JJ16); assay: Binding affinity for 5-hydroxytryptamine 3 receptor by displacement of racemic [3H]zacopride from rat cortex
T2 sequence (P35563 whole entry): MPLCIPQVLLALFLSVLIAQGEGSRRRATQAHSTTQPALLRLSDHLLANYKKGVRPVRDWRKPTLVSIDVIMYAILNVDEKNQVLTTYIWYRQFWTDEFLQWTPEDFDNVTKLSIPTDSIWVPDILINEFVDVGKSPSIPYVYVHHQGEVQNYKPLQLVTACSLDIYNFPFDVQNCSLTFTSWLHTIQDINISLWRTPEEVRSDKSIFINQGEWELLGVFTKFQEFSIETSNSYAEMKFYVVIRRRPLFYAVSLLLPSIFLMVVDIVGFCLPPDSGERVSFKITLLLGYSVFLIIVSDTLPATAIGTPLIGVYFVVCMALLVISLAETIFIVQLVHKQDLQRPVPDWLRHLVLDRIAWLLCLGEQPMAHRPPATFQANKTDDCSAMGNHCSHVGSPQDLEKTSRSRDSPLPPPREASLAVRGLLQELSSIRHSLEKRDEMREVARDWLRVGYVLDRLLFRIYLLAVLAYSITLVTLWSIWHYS
T2 sequence (Q9JJ16 whole entry): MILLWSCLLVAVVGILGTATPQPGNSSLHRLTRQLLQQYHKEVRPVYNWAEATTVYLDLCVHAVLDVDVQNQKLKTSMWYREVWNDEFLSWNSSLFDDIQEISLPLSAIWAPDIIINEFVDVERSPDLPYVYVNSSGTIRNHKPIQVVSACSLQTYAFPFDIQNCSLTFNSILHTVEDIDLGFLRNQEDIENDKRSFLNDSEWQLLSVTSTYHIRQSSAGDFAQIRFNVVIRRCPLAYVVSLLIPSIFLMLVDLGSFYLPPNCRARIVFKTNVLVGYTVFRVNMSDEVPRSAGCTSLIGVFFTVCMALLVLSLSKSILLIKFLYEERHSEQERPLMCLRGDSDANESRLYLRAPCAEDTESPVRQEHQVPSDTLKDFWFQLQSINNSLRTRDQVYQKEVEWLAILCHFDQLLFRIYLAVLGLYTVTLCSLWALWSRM

| Structure (SMILES) | Ki [1] [nM] | Ki [2] [nM] | Ki [3] [nM] | Ki [4] [nM] |
| --- | --- | --- | --- | --- |
| CC(C)n1cnc2c(C(=O)NC3CC4CCC(C3)N4C)cc(Cl)cc21 (configuration not stated) | 20 | 1 | 158 |  |
| COc1cc(N)c(Cl)cc1C(=O)N[C@H]1CN2CCC1CC2 [(R)ZACOPRIDE] |  |  | 2820 | 3.72 |
| CC(C)n1cnc2c(C(=O)N[C@H]3CN4CCC3CC4)cc(Cl)cc21 |  |  | 24 |  |
| COc1cc(N)c(Cl)cc1C(=O)N[C@@H]1CN2CCC1CC2 |  |  | 437 |  |
